Measurements reported in US20240216315A1, “METHODS AND COMPOSITIONS FOR TREATMENT OF DIABETIC RETINOPATHY AND RELATED CONDITIONS” (Ocuphire Pharma, Inc., priority 2021, published 2024).

How the values were obtained:
[1] = Phase 2 clinical study, safety: blood chemistry (alanine and aspartate aminotransferase in subjects' blood); format: in vivo, human; conditions: combined placebo and Compound 1 patients
Source text: (§1) The study is to be configured as a placebo-controlled, double-masked, randomized, Phase 2 study in approximately 100 subjects with moderately severe to severe NPDR (diabetic retinopathy severity score [DRSS] Level 47 or 53, see FIG. 1) or mild PDR (DRSS Level 61), evaluating safety and efficacy following administration of Compound 1 twice daily for 24 weeks. The study will have a 1:1 randomization (placebo: Compound 1). Randomization will be stratified by level of disease severity (NPDR or PDR). Subjects with mild PDR will be capped at 20% for each arm. Efficacy evaluations at 12 and/or 24 weeks will include DRSS, center-involved diabetic macular edema (DME), moderate PDR or PDR-related adverse events (AEs), best-corrected visual acuity (BCVA), and central subfield thickness (CST). Further experimental procedures and results are described below.
(§2) At the Qualification/Baseline (Visit 2, Day 1): • The subject will be randomized into the study. • Study medication will be dispensed in accordance with the subjects randomized treatment arm. • Blood samples will be drawn pre-dose for baseline levels and on Visit 9 (Week 24) for exploratory biomarker processing (i.e., cytokine and Ref-1 levels) to evaluate pharmacodynamic properties. • Subjects will be instructed to administer their study medication (APX3330 or placebo) cach day, with 3 tablets every morning and 2 tablets every evening. Study medication should be taken at approximately the same time each day and may be taken with or without food.
At the Second Treatment Visit (Visit 6, Week 12±2 Days), subjects will return to the site for the following series of safety and efficacy assessments: drug accountability, concomitant medications, urine pregnancy test (only for women of childbearing potential), HR/BP/vital signs, BCVA (ETDRS), DRSS, CST (SD-OCT), blood draw for PK, blood chemistry, blood hematology, biomicroscopy, ophthalmoscopy, IOP, eGFR, and AEs. Following the completion of the assessments, used medication kits will be collected for accountability (by counting the number of unused tablets), and new study medication kits will be dispensed.
At the Third Treatment Visit (Visit 9, Week 24±2 Days), subjects will return to the site for the following series of safety and efficacy assessments: drug accountability, concomitant medications, urine pregnancy test (only for women of childbearing potential), physical examination, HR/BP/vital signs, BCVA (ETDRS), DRSS, CST (SD-OCT), blood chemistry, blood hematology, biomicroscopy, ophthalmoscopy, IOP, cGFR, AEs, and blood draw for exploratory biomarkers (ELISA, cytokine panel, comprehensive metabolic panel). Visit 9 (Week 24) is the end of the treatment period. Study medication will be returned for accountability (by counting the number of unused tablets), and no further study medication will be dispensed.
Study subjects will receive study medication as set forth in Table 1 according to the Treatment Group to which the subject is assigned. Subjects will be instructed to take study medication at approximately the same time each day, and the medication may be taken with or without food. […]

[2] = Phase 2 clinical study, safety: treatment-emergent adverse events; format: in vivo, human
Source text: as §1, §2
Telephone safety calls will be conducted for Visit 3 (Week 1±2 Days), Visit 5 (Week 8±2 Days), Visit 7 (Week 16±2 Days), and Visit 8 (Week 20±2 Days). The safety assessment will include review of drug compliance, concomitant medications, AEs, and urine pregnancy test at home (only for women of childbearing potential).
Study subjects will receive study medication as set forth in Table 1 according to the Treatment Group to which the subject is assigned. […]

For `CCCCCCCCC/C(=C\C1=C(C)C(=O)C(OC)=C(OC)C1=O)C(=O)O` [Compound 1, (E)-2-((4,5-dimethoxy-2-methyl-3,6-dioxocyclohexa-1,4-dien-1-yl)methylene)undecanoic acid], the “change in mean concentration of alanine aminotransferase in subjects' blood relative to Baseline” value ([1]; week 12, 50 subjects) was −0.8 IU/L, the “change in mean concentration of aspartate aminotransferase in subjects' blood relative to Baseline” value ([1]; week 12, 50 subjects) was −0.5 IU/L and the “reduction in mean concentration of alanine aminotransferase in subjects' blood relative to Baseline” value ([1]; week 12, 50 subjects) was 3.6%. The “reduction in mean concentration of aspartate aminotransferase in subjects' blood relative to Baseline” value ([1]; week 12, 50 subjects) was 3%, the “change in mean concentration of alanine aminotransferase in subjects' blood relative to Baseline” value ([1]; week 24, 22 subjects) was −2.1 IU/L and the “change in mean concentration of aspartate aminotransferase in subjects' blood relative to Baseline” value ([1]; week 24, 22 subjects) was −1.8 IU/L. The “reduction in mean concentration of alanine aminotransferase in subjects' blood relative to Baseline” value ([1]; week 24, 22 subjects) was 9.4%, the “reduction in mean concentration of aspartate aminotransferase in subjects' blood relative to Baseline” value ([1]; week 24, 22 subjects) was 9% and the “safety profile in the patient population enrolled” value ([2]; Compound 1 administered orally according to the study protocol (600 mg/day)) was “good safety profile”. The “total of treatment-emergent adverse events observed” value ([2]; from the 100 subjects enrolled, combined placebo and Compound 1 patients) was 83 and the “subjects that reported at least one treatment-emergent adverse event” value ([2]; of 100 subjects enrolled, combined placebo and Compound 1 patients) was 41.
